Test results published in patent EP0624586B1, “Substituted pyrroles” (F. HOFFMANN-LA ROCHE AG, priority 1993, dated 1994).
Structures can show the parent of a compound that is named as a salt.

Target: protein kinase C
Assay: in vitro protein kinase C inhibition (32P incorporation from [γ-32P]ATP into histone)
Assay type: biochemical
Details: protein kinase C isolated from rat brains; 10 µM [γ-32P]ATP, lysine-rich histone, 30°C, 10 minutes
Description: Reaction mixtures (100 µl) contain 10 µM [γ-^32P]ATP, 0.2 mg/ml (about 15 µM) lysine-rich histone, 0.5 mM CaCl2 and 40 µg/ml phosphatidylserine in 25 mM Tris HCl, 5 mM MgNO3 (pH 7.5) buffer. The enzyme protein kinase C is isolated from rat brains according to the method of Kikkawa et al., J. Biol. Chem. 257, 13341 (1982). The reaction is started by adding the enzyme, is run at 30°C for 10 minutes and is then stopped using 1 ml of ice-cold 10% trichloroacetic acid. Acid-precipitable protein is collected on glass fibre discs by filtration. These discs are then washed with 5% trichloroacetic acid containing 20 mM sodium pyrophosphate (in order to remove unreacted ATP), followed by ethanol. The discs are dried and counted. Counts associated with each disc are used as a measure of the incorporation of ^32P from [γ-^32P]ATP into histone. The degree of enzyme blockade at each test compound concentration is calculated from (Cpm incorporated + test compound + enzyme)/(Cpm incorporated - test compound + enzyme)x 100% [formula] The IC50 value is that concentration of test compound which reduces by 50% the protein kinase-induced incorporation of the ^32P under the assay conditions described above.

Row | IC50 | Compound
1 | 3.3 nM | CCC(N)[C@H]1CCn2c(c(C3=C(c4cn(C)c5ccccc45)C(=O)NC3=O)c3ccccc32)C1 (single isomer, unassigned) [Example 10, 3-[8(S)-[1(R or S)-aminopropyl]-6,7,8,9-tetrahydropyrido[1,2-a]indol-10-yl]-4-(1-methyl-3-indolyl)-1H-pyrrole-2,5-dione hydrochloride]
2 | 5.5 nM | CC(C)[C@H](N)[C@H]1CCn2c(c(C3=C(c4cn(C)c5ccccc45)C(=O)NC3=O)c3ccccc32)C1 [Example 11, 3-[8(S)-[1(S)-amino-2-methylpropyl]-6,7,8,9-tetrahydropyrido[1,2-a]indol-10-yl-4-(1-methyl-3-indolyl)-1H-pyrrole-2,5-dione hydrochloride]
